Laboratory results reported in PMC6718478, “A Comprehensive Antimicrobial Activity Evaluation of the Recombinant Microcin J25 Against the Foodborne Pathogens Salmonella and E. coli O157:H7 by Using a Matrix of Conditions” (Frontiers in Microbiology, 2019).
Positions of bridges follow the written chain, without caps; N, C: chain ends. Residues, ends and D or L forms follow the SMILES beside them.

Legend:
S. Pullorum [1] = assay: Antimicrobial activity after treatment with simulated intestinal fluid (SIF); type: in vitro ADME, Salmonella Pullorum; conditions: simulated intestinal fluid, 2, 4, and 6 h; 1 × MIC; inhibition zone; three replicate experiments
Experimental: (§1) Biological fluids (SGF; SIF) and serum were prepared as described previously ([Liu et al., 2013]; [Xia et al., 2015]). Then, assays of the antibacterial activity of recombinant MccJ25 in SGF, SIF and serum were performed. S. Pullorum was grown in Mueller-Hinton broth (MHB, Difco Laboratories, Detroit, MI, United States). One milliliter of bacterial inoculum was transferred into 9 mL of each medium with the recombinant MccJ25 and into corresponding control medium without the recombinant MccJ25. LB agar inoculated with the indicator bacteria S. Pullorum (approximately 10^5 viable cells per mL) was poured over plates fitted with Oxford cups to make wells. Hundred and fifty μL of a 1 × MIC final concentration of recombinant MccJ25 samples that had previously been treated with SGF, SIF and serum for 2, 4, and 6 h, respectively, were added to the wells. The agar overlays were incubated overnight at 37°C, and the inhibition zones were recorded.

chymotrypsin = assay: Resistance to a single protease, inhibition zone read-out; type: in vitro ADME; conditions: chymotrypsin for 2 and 4 h; 1 × MIC; inhibition zone against S. Pullorum; three replicate experiments
Experimental: (§2) The resistance of recombinant MccJ25 to pepsin, trypsin and chymotrypsin was evaluated as described previously ([Chen et al., 2009]; [Meng et al., 2019]) with slight modification. The indicator Salmonella was prepared (approximately 1 × 10^7 CFU/mL), and 1 mL of bacterial inoculum was transferred into 9 mL of each medium with the recombinant MccJ25 and into corresponding control media without the recombinant MccJ25. LB agar inoculated with the indicator bacteria S. Pullorum (approximately 10^5 viable cells per mL) was poured over plates that had been fitted with Oxford cups to make wells. Then, 150 μL of a 1 × MIC final concentration of recombinant MccJ25 that had been previously treated under various conditions for 2 and 4 h were added to the wells. The agar overlays were incubated overnight at 37°C, and the inhibition zones were recorded.

trypsin = assay: as above; type: in vitro ADME; conditions: trypsin for 2 and 4 h; 1 × MIC; inhibition zone against S. Pullorum; three replicate experiments
Experimental: as §2

pepsin = assay: as above; type: in vitro ADME; conditions: pepsin for 2 and 4 h; 1 × MIC; inhibition zone against S. Pullorum; three replicate experiments
Experimental: as §2

S. Pullorum [2] = assay: Antimicrobial activity after treatment with serum; type: in vitro ADME, Salmonella Pullorum; conditions: murine serum, 2, 4, and 6 h; 1 × MIC; inhibition zone; three replicate experiments
Experimental: as §1

S. Pullorum [3] = assay: Antimicrobial activity after treatment with simulated gastric fluid (SGF); type: in vitro ADME, Salmonella Pullorum; conditions: simulated gastric fluid, 2, 4, and 6 h; 1 × MIC; inhibition zone; three replicate experiments
Experimental: as §1

CC[C@H](C)[C@H](NC(=O)CNC(=O)[C@@H](NC(=O)[C@H](Cc1ccccc1)NC(=O)[C@H](Cc1ccc(O)cc1)NC(=O)[C@@H]1CCC(=O)NCC(=O)NCC(=O)N[C@@H](C)C(=O)NCC(=O)N[C@@H](Cc2cnc[nH]2)C(=O)N[C@@H](C(C)C)C(=O)N2CCC[C@H]2C(=O)N1)C(C)C)C(=O)NCC(=O)N[C@H](C(=O)N1CCC[C@H]1C(=O)N[C@H](C(=O)N[C@@H](CO)C(=O)N[C@@H](Cc1ccccc1)C(=O)N[C@@H](Cc1ccc(O)cc1)C(=O)NCC(=O)O)[C@@H](C)CC)[C@@H](C)O [recombinant MccJ25, microcin J25] (GGAGHVPEYFVGIGTPISFYG-OH; lactam N-8)
growth inhibition of S. Pullorum after incubation with SIF (S. Pullorum [1]): still inhibited the growth of S. Pullorum in a manner similar to that of recombinant MccJ25 alone
antimicrobial activity after protease challenge (chymotrypsin): maintained its antimicrobial activity
antimicrobial activity after protease challenge (trypsin): maintained its antimicrobial activity
antimicrobial activity after protease challenge (pepsin): maintained its antimicrobial activity
growth inhibition of S. Pullorum after incubation with serum (S. Pullorum [2]): still inhibited the growth of S. Pullorum in a manner similar to that of recombinant MccJ25 alone
growth inhibition of S. Pullorum after incubation with SGF (S. Pullorum [3]): still inhibited the growth of S. Pullorum in a manner similar to that of recombinant MccJ25 alone
